# Test results published in patent US11771738B2 (Zoetis Services LLC, priority 2018, dated 2023).
# Marks after values point to notes of the source that are not given here.
# Test system: third stage larvae of Haemonchus contortus
# Assay: Haemonchus contortus, Larvae Stage 3 (HcL3) In Vitro Assay
# Assay type: cell-based
# Details: Haemonchus contortus third stage larvae in vitro; class mark appended to the Ex # in Table 3
row,Compound,HcL3 MED
1,CC(C)C[C@H]1C(=O)O[C@H](Cc2ccc(Cc3cccnc3)cc2)C(=O)N(C)[C@@H](CC(C)C)C(=O)O[C@H](C)C(=O)N(C)[C@@H](CC(C)C)C(=O)O[C@H](Cc2ccc(Cc3cccnc3)cc2)C(=O)N(C)[C@@H](CC(C)C)C(=O)O[C@H](C)C(=O)N1C [Example 3-3],3-3^ (Examples with a carrot (^) have HcL3 MED values>1 and ≤3.3 μM)
2,CC(C)C[C@H]1C(=O)O[C@H](Cc2ccc(Cc3nncs3)cc2)C(=O)N(C)[C@@H](CC(C)C)C(=O)O[C@H](C)C(=O)N(C)[C@@H](CC(C)C)C(=O)O[C@H](Cc2ccc(Cc3nncs3)cc2)C(=O)N(C)[C@@H](CC(C)C)C(=O)O[C@H](C)C(=O)N1C [Example 3-14],3-14* (Examples with an asterisk (*) have HcL3 MED values≤1 μM)
3,CC(C)C[C@H]1C(=O)O[C@H](Cc2ccc(Cc3ccccn3)cc2)C(=O)N(C)[C@@H](CC(C)C)C(=O)O[C@H](C)C(=O)N(C)[C@@H](CC(C)C)C(=O)O[C@H](Cc2ccc(Cc3ccccn3)cc2)C(=O)N(C)[C@@H](CC(C)C)C(=O)O[C@H](C)C(=O)N1C [Example 3-27],3-27^ (Examples with a carrot (^) have HcL3 MED values>1 and ≤3.3 μM)
4,CC(C)C[C@H]1C(=O)O[C@H](Cc2ccc(Cc3nc(-c4ccccc4)cs3)cc2)C(=O)N(C)[C@@H](CC(C)C)C(=O)O[C@H](C)C(=O)N(C)[C@@H](CC(C)C)C(=O)O[C@H](Cc2ccc(Cc3nc(-c4ccccc4)cs3)cc2)C(=O)N(C)[C@@H](CC(C)C)C(=O)O[C@H](C)C(=O)N1C [Example 3-36],3-36* (Examples with an asterisk (*) have HcL3 MED values≤1 μM)
5,CC(C)C[C@H]1C(=O)O[C@H](Cc2ccc(Cc3cscn3)cc2)C(=O)N(C)[C@@H](CC(C)C)C(=O)O[C@H](C)C(=O)N(C)[C@@H](CC(C)C)C(=O)O[C@H](Cc2ccc(Cc3cscn3)cc2)C(=O)N(C)[C@@H](CC(C)C)C(=O)O[C@H](C)C(=O)N1C [Example 3-45],3-45* (Examples with an asterisk (*) have HcL3 MED values≤1 μM)
6,Cc1nc(C)c(Cc2ccc(C[C@H]3OC(=O)[C@H](CC(C)C)N(C)C(=O)[C@@H](C)OC(=O)[C@H](CC(C)C)N(C)C(=O)[C@@H](Cc4ccc(Cc5sc(C)nc5C)cc4)OC(=O)[C@H](CC(C)C)N(C)C(=O)[C@@H](C)OC(=O)[C@H](CC(C)C)N(C)C3=O)cc2)s1 [Example 3-52],3-52* (Examples with an asterisk (*) have HcL3 MED values≤1 μM)
7,CC(C)C[C@H]1C(=O)O[C@H](Cc2ccc(Cc3ncccn3)cc2)C(=O)N(C)[C@@H](CC(C)C)C(=O)O[C@H](C)C(=O)N(C)[C@@H](CC(C)C)C(=O)O[C@H](Cc2ccc(Cc3ncccn3)cc2)C(=O)N(C)[C@@H](CC(C)C)C(=O)O[C@H](C)C(=O)N1C [Example 3-73],3-73* (Examples with an asterisk (*) have HcL3 MED values≤1 μM)
8,Cc1nc(Cc2ccc(C[C@H]3OC(=O)[C@H](CC(C)C)N(C)C(=O)[C@@H](C)OC(=O)[C@H](CC(C)C)N(C)C(=O)[C@@H](Cc4ccc(Cc5csc(C)n5)cc4)OC(=O)[C@H](CC(C)C)N(C)C(=O)[C@@H](C)OC(=O)[C@H](CC(C)C)N(C)C3=O)cc2)cs1 [Example 3-76],3-76^ (Examples with a carrot (^) have HcL3 MED values>1 and ≤3.3 μM)
9,Cc1nc(Cc2ccc(C[C@H]3OC(=O)[C@H](CC(C)C)N(C)C(=O)[C@@H](C)OC(=O)[C@H](CC(C)C)N(C)C(=O)[C@@H](Cc4ccc(Cc5nc(C)oc5C)cc4)OC(=O)[C@H](CC(C)C)N(C)C(=O)[C@@H](C)OC(=O)[C@H](CC(C)C)N(C)C3=O)cc2)c(C)o1 [Example 3-81],3-81^ (Examples with a carrot (^) have HcL3 MED values>1 and ≤3.3 μM)
10,COc1cc(Cc2ccc(C[C@H]3OC(=O)[C@H](CC(C)C)N(C)C(=O)[C@@H](C)OC(=O)[C@H](CC(C)C)N(C)C(=O)[C@@H](Cc4ccc(Cc5cnc(OC)c(OC)c5)cc4)OC(=O)[C@H](CC(C)C)N(C)C(=O)[C@@H](C)OC(=O)[C@H](CC(C)C)N(C)C3=O)cc2)cnc1OC [Example 3-115],3-115^ (Examples with a carrot (^) have HcL3 MED values>1 and ≤3.3 μM)
11,CC(C)C[C@H]1C(=O)O[C@H](Cc2ccc(Cc3cnn(C(F)F)c3)cc2)C(=O)N(C)[C@@H](CC(C)C)C(=O)O[C@H](C)C(=O)N(C)[C@@H](CC(C)C)C(=O)O[C@H](Cc2ccc(Cc3cnn(C(F)F)c3)cc2)C(=O)N(C)[C@@H](CC(C)C)C(=O)O[C@H](C)C(=O)N1C [Example 3-119],3-119* (Examples with an asterisk (*) have HcL3 MED values≤1 μM)
12,Cc1nnsc1C(O)c1ccc(C[C@H]2OC(=O)[C@H](CC(C)C)N(C)C(=O)[C@@H](C)OC(=O)[C@H](CC(C)C)N(C)C(=O)[C@@H](Cc3ccc(C(O)c4snnc4C)cc3)OC(=O)[C@H](CC(C)C)N(C)C(=O)[C@@H](C)OC(=O)[C@H](CC(C)C)N(C)C2=O)cc1 (some centres unmarked) [Example 3-126],3-126* (Examples with an asterisk (*) have HcL3 MED values≤1 μM)
13,COc1cc(Cc2ccc(C[C@H]3OC(=O)[C@H](CC(C)C)N(C)C(=O)[C@@H](C)OC(=O)[C@H](CC(C)C)N(C)C(=O)[C@@H](Cc4ccc(Cc5ccnc(OC)c5)cc4)OC(=O)[C@H](CC(C)C)N(C)C(=O)[C@@H](C)OC(=O)[C@H](CC(C)C)N(C)C3=O)cc2)ccn1 [Example 3-192],3-192^ (Examples with a carrot (^) have HcL3 MED values>1 and ≤3.3 μM)
14,CC(C)C[C@H]1C(=O)O[C@H](Cc2ccc(Cc3ccnn3CC(C)C)cc2)C(=O)N(C)[C@@H](CC(C)C)C(=O)O[C@H](C)C(=O)N(C)[C@@H](CC(C)C)C(=O)O[C@H](Cc2ccc(Cc3ccnn3CC(C)C)cc2)C(=O)N(C)[C@@H](CC(C)C)C(=O)O[C@H](C)C(=O)N1C [Example 3-211],3-211^ (Examples with a carrot (^) have HcL3 MED values>1 and ≤3.3 μM)
15,Cc1ncc(Cc2ccc(C[C@H]3OC(=O)[C@H](CC(C)C)N(C)C(=O)[C@@H](C)OC(=O)[C@H](CC(C)C)N(C)C(=O)[C@@H](Cc4ccc(Cc5cnc(C)o5)cc4)OC(=O)[C@H](CC(C)C)N(C)C(=O)[C@@H](C)OC(=O)[C@H](CC(C)C)N(C)C3=O)cc2)o1 [Example 3-298],3-298^ (Examples with a carrot (^) have HcL3 MED values>1 and ≤3.3 μM)
16,CC(C)C[C@H]1C(=O)O[C@H](Cc2ccc(Cc3cc[nH]n3)cc2)C(=O)N(C)[C@@H](CC(C)C)C(=O)O[C@H](C)C(=O)N(C)[C@@H](CC(C)C)C(=O)O[C@H](Cc2ccc(Cc3cc[nH]n3)cc2)C(=O)N(C)[C@@H](CC(C)C)C(=O)O[C@H](C)C(=O)N1C [Example 3-301],3-301^ (Examples with a carrot (^) have HcL3 MED values>1 and ≤3.3 μM)
17,CCCn1nccc1Cc1ccc(C[C@H]2OC(=O)[C@H](CC(C)C)N(C)C(=O)[C@@H](C)OC(=O)[C@H](CC(C)C)N(C)C(=O)[C@@H](Cc3ccc(Cc4ccnn4CCC)cc3)OC(=O)[C@H](CC(C)C)N(C)C(=O)[C@@H](C)OC(=O)[C@H](CC(C)C)N(C)C2=O)cc1 [Example 3-303],3-303* (Examples with an asterisk (*) have HcL3 MED values≤1 μM)
18,CC(C)C[C@H]1C(=O)O[C@H](Cc2ccc(Cc3ccnn3C(C)C)cc2)C(=O)N(C)[C@@H](CC(C)C)C(=O)O[C@H](C)C(=O)N(C)[C@@H](CC(C)C)C(=O)O[C@H](Cc2ccc(Cc3ccnn3C(C)C)cc2)C(=O)N(C)[C@@H](CC(C)C)C(=O)O[C@H](C)C(=O)N1C [Example 3-305],3-305* (Examples with an asterisk (*) have HcL3 MED values≤1 μM)
19,CC(C)C[C@H]1C(=O)O[C@H](Cc2ccc(Cc3cnccc3C3CC3)cc2)C(=O)N(C)[C@@H](CC(C)C)C(=O)O[C@H](C)C(=O)N(C)[C@@H](CC(C)C)C(=O)O[C@H](Cc2ccc(Cc3cnccc3C3CC3)cc2)C(=O)N(C)[C@@H](CC(C)C)C(=O)O[C@H](C)C(=O)N1C [Example 3-306],3-306* (Examples with an asterisk (*) have HcL3 MED values≤1 μM)

# Same assay, conditions: approximately 96 hours incubation; multiple-resistant field isolate
row,Compound,HcL3 MED (symbol after Ex#)
1,COc1cc(F)ccc1Cc1ccc(C[C@H]2OC(=O)[C@H](CC(C)C)N(C)C(=O)[C@@H](C)OC(=O)[C@H](CC(C)C)N(C)C(=O)[C@@H](Cc3ccccc3)OC(=O)[C@H](CC(C)C)N(C)C(=O)[C@@H](C)OC(=O)[C@H](CC(C)C)N(C)C2=O)cc1 [Example 2-9],2-9* (Examples with an asterisk (*) have HcL3 MED values≤1 μM)
2,COc1ccccc1Cc1ccc(C[C@H]2OC(=O)[C@H](CC(C)C)N(C)C(=O)[C@@H](C)OC(=O)[C@H](CC(C)C)N(C)C(=O)[C@@H](Cc3ccccc3)OC(=O)[C@H](CC(C)C)N(C)C(=O)[C@@H](C)OC(=O)[C@H](CC(C)C)N(C)C2=O)cc1 [Example 2-12],2-12^ (Examples with a carrot (^) have HcL3 MED values>1 and ≤3.3 μM)
3,Cc1nn(C)cc1Cc1ccc(C[C@H]2OC(=O)[C@H](CC(C)C)N(C)C(=O)[C@@H](C)OC(=O)[C@H](CC(C)C)N(C)C(=O)[C@@H](Cc3ccccc3)OC(=O)[C@H](CC(C)C)N(C)C(=O)[C@@H](C)OC(=O)[C@H](CC(C)C)N(C)C2=O)cc1 [Example 4-3],4-3^ (Examples with a carrot (^) have HcL3 MED values>1 and ≤3.3 μM)
4,CC(C)C[C@H]1C(=O)O[C@H](Cc2ccc(Cc3cccs3)cc2)C(=O)N(C)[C@@H](CC(C)C)C(=O)O[C@H](C)C(=O)N(C)[C@@H](CC(C)C)C(=O)O[C@H](Cc2ccccc2)C(=O)N(C)[C@@H](CC(C)C)C(=O)O[C@H](C)C(=O)N1C [Example 4-5],4-5^ (Examples with a carrot (^) have HcL3 MED values>1 and ≤3.3 μM)
5,COc1ncccc1Cc1ccc(C[C@H]2OC(=O)[C@H](CC(C)C)N(C)C(=O)[C@@H](C)OC(=O)[C@H](CC(C)C)N(C)C(=O)[C@@H](Cc3ccccc3)OC(=O)[C@H](CC(C)C)N(C)C(=O)[C@@H](C)OC(=O)[C@H](CC(C)C)N(C)C2=O)cc1 [Example 4-22],4-22^ (Examples with a carrot (^) have HcL3 MED values>1 and ≤3.3 μM)
6,CC(C)C[C@H]1C(=O)O[C@H](Cc2ccc(Cc3nccs3)cc2)C(=O)N(C)[C@@H](CC(C)C)C(=O)O[C@H](C)C(=O)N(C)[C@@H](CC(C)C)C(=O)O[C@H](Cc2ccccc2)C(=O)N(C)[C@@H](CC(C)C)C(=O)O[C@H](C)C(=O)N1C [Example 4-31],4-31* (Examples with an asterisk (*) have HcL3 MED values≤1 μM)
7,CC(C)C[C@H]1C(=O)O[C@H](Cc2ccc(Cc3cncs3)cc2)C(=O)N(C)[C@@H](CC(C)C)C(=O)O[C@H](C)C(=O)N(C)[C@@H](CC(C)C)C(=O)O[C@H](Cc2ccccc2)C(=O)N(C)[C@@H](CC(C)C)C(=O)O[C@H](C)C(=O)N1C [Example 4-35],4-35^ (Examples with a carrot (^) have HcL3 MED values>1 and ≤3.3 μM)
